From ChEMBL document CHEMBL6109092, “Anti-HBV activity of (R)-gentiandiol, a metabolite of Swertiamarin, in transgenic mice: Insights from non-targeted serum metabolomics” (Bioorg Med Chem, 2025)
Activity calls are given as the source filed them. No cut-off for these calls is given here.

Tests used:
Assay type in all cases: functional, organism-based
Hepatitis B virus [1] = assay: In vivo antiviral activity against HBV infected in male C57BL/6NCrl mouse assessed as reduction in HBV-DNA level at 6 mg/kg administered via tail vein measured after 8 weeks by ELISA
Hepatitis B virus [2] = assay: In vivo antiviral activity against HBV infected in male C57BL/6NCrl mouse assessed as reduction in HBV-DNA level at 3 mg/kg administered via tail vein measured after 8 weeks by ELISA
Hepatitis B virus [3] = assay: In vivo antiviral activity against HBV infected in male C57BL/6NCrl mouse assessed as reduction in HBV-DNA level at 1.5 mg/kg administered via tail vein measured after 8 weeks by ELISA
Hepatitis B virus [4] = assay: In vivo antiviral activity against HBV infected in male C57BL/6NCrl mouse assessed as reduction in HBsAg level at 6 mg/kg administered via tail vein measured after 8 weeks by ELISA
Hepatitis B virus [5] = assay: In vivo antiviral activity against HBV infected in male C57BL/6NCrl mouse assessed as reduction in HBsAg level at 3 mg/kg administered via tail vein measured after 8 weeks by ELISA
Hepatitis B virus [6] = assay: In vivo antiviral activity against HBV infected in male C57BL/6NCrl mouse assessed as reduction in HBsAg level at 1.5 mg/kg administered via tail vein measured after 8 weeks by ELISA
Hepatitis B virus [7] = assay: In vivo antiviral activity against HBV infected in male C57BL/6NCrl mouse assessed as reduction in HBeAg level at 6 mg/kg administered via tail vein measured after 8 weeks by ELISA
Hepatitis B virus [8] = assay: In vivo antiviral activity against HBV infected in male C57BL/6NCrl mouse assessed as reduction in HBeAg level at 3 mg/kg administered via tail vein measured after 8 weeks by ELISA
Hepatitis B virus [9] = assay: In vivo antiviral activity against HBV infected in male C57BL/6NCrl mouse assessed as reduction in HBeAg level at 1.5 mg/kg administered via tail vein measured after 8 weeks by ELISA
Hepatitis B virus [10] = assay: In vivo antiviral activity against HBV infected in male C57BL/6NCrl mouse assessed as reduction in HBV-DNA level administered via tail vein measured after 8 weeks by ELISA; details: dose 1.5-6 mg/kg
Mus musculus [11] = assay: Reduction in taurocholic acid in HBV infected male C57BL/6NCrl mouse serum at 50 to 150 mg/kg, administered via tail vein by UPLC-Q/TOF-MS analysis.; details: dose 50-150 mg/kg
Mus musculus [12] = assay: Reversal of phenylalanine level in HBV infected male C57BL/6NCrl mouse serum at 50 to 150 mg/kg, administered via tail vein by UPLC-Q/TOF-MS analysis.; details: dose 50-150 mg/kg
Mus musculus [13] = assay: Reversal of tyrosine in HBV infected male C57BL/6NCrl mouse serum at 50 to 150 mg/kg, administered via tail vein by UPLC-Q/TOF-MS analysis.; details: dose 50-150 mg/kg
Mus musculus [14] = assay: Reversal of citric acid level in HBV infected male C57BL/6NCrl mouse serum at 50 to 150 mg/kg, administered via tail vein by UPLC-Q/TOF-MS analysis.; details: dose 50-150 mg/kg
Mus musculus [15] = assay: Reversal of arachidonic acid level in HBV infected male C57BL/6NCrl mouse serum at 50 to 150 mg/kg, administered via tail vein by UPLC-Q/TOF-MS analysis.; details: dose 50-150 mg/kg
Hepatitis B virus [16] = assay: In vivo antiviral activity against HBV infected in male C57BL/6NCrl mouse assessed as reduction in HBV-DNA level at 0.026 g/Kg, IG measured after 8 weeks by ELISA
Hepatitis B virus [17] = assay: In vivo antiviral activity against HBV infected in male C57BL/6NCrl mouse assessed as reduction in HBsAg level at 0.026 g/Kg, IG measured after 8 weeks by ELISA
Hepatitis B virus [18] = assay: In vivo antiviral activity against HBV infected in male C57BL/6NCrl mouse assessed as reduction in HBeAg level at 0.026 g/Kg, IG measured after 8 weeks by ELISA
Mus musculus [19] = assay: Reversal of arachidonic acid level in HBV infected male C57BL/6NCrl mouse serum at 0.026 mg/kg, IG by UPLC-Q/TOF-MS analysis.
Mus musculus [20] = assay: Reversal of citric acid level in HBV infected male C57BL/6NCrl mouse serum at 0.026 mg/kg, IG by UPLC-Q/TOF-MS analysis.
Mus musculus [21] = assay: Reversal of phenylalanine level in HBV infected male C57BL/6NCrl mouse serum at 0.026 mg/kg, IG by UPLC-Q/TOF-MS analysis.
Mus musculus [22] = assay: Reversal of tyrosine in HBV infected male C57BL/6NCrl mouse serum at 0.026 mg/kg, IG by UPLC-Q/TOF-MS analysis.
Hepatitis B virus [23] = assay: In vivo antiviral activity against HBV infected in male C57BL/6NCrl mouse assessed as reduction in HBV-DNA level at 0.065 mg/kg, IG measured after 8 weeks by ELISA
Hepatitis B virus [24] = assay: In vivo antiviral activity against HBV infected in male C57BL/6NCrl mouse assessed as reduction in HBsAg level at 0.065 mg/kg, IG measured after 8 weeks by ELISA
Hepatitis B virus [25] = assay: In vivo antiviral activity against HBV infected in male C57BL/6NCrl mouse assessed as reduction in HBeAg level at 0.065 mg/kg, IG measured after 8 weeks by ELISA

Question: `O=C1OCCc2c1cncc2[C@@H](O)CO` was tested. Which Activity (Hepatitis B virus [1]) did it give?
Answer: Active

Question: And the Activity (Hepatitis B virus [2])?
Answer: Active

Question: What about the Activity (Hepatitis B virus [3]) of the same compound?
Answer: Active

Question: And the Activity (Hepatitis B virus [4])?
Answer: Active

Question: What about the Activity (Hepatitis B virus [5]) of the same compound?
Answer: Active

Question: And the Activity (Hepatitis B virus [6])?
Answer: Active

Question: What about the Activity (Hepatitis B virus [7]) of the same compound?
Answer: Active

Question: And the Activity (Hepatitis B virus [8])?
Answer: Active

Question: What about the Activity (Hepatitis B virus [9]) of the same compound?
Answer: Active

Question: What about the Activity (Hepatitis B virus [10]) of the same compound?
Answer: Dose-dependent-effect

Question: What about the Activity (Mus musculus [11]) of the same compound?
Answer: Active

Question: What about the Activity (Mus musculus [12]) of the same compound?
Answer: Active

Question: What about the Activity (Mus musculus [13]) of the same compound?
Answer: Active

Question: What about the Activity (Mus musculus [14]) of the same compound?
Answer: Active

Question: What about the Activity (Mus musculus [15]) of the same compound?
Answer: Active

Question: Which Activity (Hepatitis B virus [1]) does the source give for `O=C1OCCc2c1cncc2[C@H](O)CO` here?
Answer: inactive

Question: And the Activity (Hepatitis B virus [4])?
Answer: inactive

Question: What about the Activity (Hepatitis B virus [7]) of the same compound?
Answer: inactive

Question: Which results are given for `C=C[C@H]1[C@H](O[C@@H]2O[C@H](CO)[C@@H](O)[C@H](O)[C@H]2O)OC=C2C(=O)OCC[C@]21O`?
Answer: Activity (Hepatitis B virus [16]): Active; Activity (Hepatitis B virus [17]): Active; Activity (Hepatitis B virus [18]): Active; Activity (Mus musculus [19]): Active; Activity (Mus musculus [20]): Active; Activity (Mus musculus [21]): Active; Activity (Mus musculus [22]): Active

Question: Which results are given for `C=C1[C@H](CO)[C@@H](O)C[C@@H]1n1cnc2c(=O)[nH]c(N)nc21`?
Answer: Activity (Hepatitis B virus [23]): Active; Activity (Hepatitis B virus [24]): Active; Activity (Hepatitis B virus [25]): Active
